Earlier results, collected in PMC4368888, “Preclinical to Clinical Translation of CNS Transporter Occupancy of TD-9855, a Novel Norepinephrine and Serotonin Reuptake Inhibitor” (International Journal of Neuropsychopharmacology, 2015).

Tests used:
SERT and NET = details: in vitro; ref Wu et al., 2008; Tsuruda et al., 2010; cited from earlier work
SERT = SERT (Homo sapiens, UniProt P31645); details: approved dose (100mg) for fibromyalgia; ref Nogami et al., 2013; cited from earlier work
Chain of SERT (P31645 whole entry): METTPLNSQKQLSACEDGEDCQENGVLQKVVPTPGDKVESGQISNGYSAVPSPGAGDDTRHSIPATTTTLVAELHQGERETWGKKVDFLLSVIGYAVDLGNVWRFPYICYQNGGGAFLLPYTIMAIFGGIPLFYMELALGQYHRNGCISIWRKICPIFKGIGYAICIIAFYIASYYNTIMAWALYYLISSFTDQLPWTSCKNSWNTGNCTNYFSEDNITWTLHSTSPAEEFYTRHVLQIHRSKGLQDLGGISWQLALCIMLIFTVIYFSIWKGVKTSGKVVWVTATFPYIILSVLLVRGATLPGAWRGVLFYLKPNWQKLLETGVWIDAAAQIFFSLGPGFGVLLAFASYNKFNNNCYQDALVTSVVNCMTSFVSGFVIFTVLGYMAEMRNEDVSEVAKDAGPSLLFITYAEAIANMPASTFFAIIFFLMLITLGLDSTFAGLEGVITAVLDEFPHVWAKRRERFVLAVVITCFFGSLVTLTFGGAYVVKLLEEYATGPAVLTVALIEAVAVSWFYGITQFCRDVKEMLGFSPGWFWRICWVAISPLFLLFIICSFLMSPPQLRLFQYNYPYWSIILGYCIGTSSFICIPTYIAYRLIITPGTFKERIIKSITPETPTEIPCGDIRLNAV

SMILES | functional selectivity for NE (SERT and NET) [fold] | occupancy of SERT (SERT)
CNCC[C@@H](Oc1ccccc1C)c1ccccc1 [atomoxetine] | ≥ 20 | –
CCN(CC)C(=O)C1(c2ccccc2)CC1CN (centres unmarked) [milnacipran] | – | ~ 40%
